# Assay results as given in ChEMBL document CHEMBL3120064, “Synthesis and biological evaluation of baicalein derivatives as potent antitumor agents” (Bioorg Med Chem Lett, 2014).
# Activity calls are given as the source filed them. No cut-off for these calls is given here.
# Tested on: HepG2
# Assay: Induction of apoptosis in human HepG2 cells assessed as late apoptotic cells at 1.5 uM after 72 hrs by annexin V and propidium iodide staining-based flow cytometric analysis (reference value: 1.4 %)
# Type: functional
# Details: not given
row,Structure (SMILES),Activity [%]
1,O=c1cc(-c2ccccc2)oc2cc(OCc3ccccc3)c(OCCCCN3CCCC3)c(O)c12,6.3

# Tested on: HepG2
# Assay: Induction of apoptosis in human HepG2 cells assessed as late apoptotic cells at 0.75 uM after 72 hrs by annexin V and propidium iodide staining-based flow cytometric analysis (reference value: 1.4 %)
# Type: functional
# Details: not given
row,Structure (SMILES),Activity [%]
1,O=c1cc(-c2ccccc2)oc2cc(OCc3ccccc3)c(OCCCCN3CCCC3)c(O)c12,2.2

# Tested on: HepG2
# Assay: Induction of apoptosis in human HepG2 cells assessed as necrotic cells at 1.5 uM after 72 hrs by annexin V and propidium iodide staining-based flow cytometric analysis (reference value: 2.7 +/- 0.1%)
# Type: functional
# Details: not given
row,Structure (SMILES),Activity [%]
1,O=c1cc(-c2ccccc2)oc2cc(OCc3ccccc3)c(OCCCCN3CCCC3)c(O)c12,11.1

# Tested on: HepG2
# Assay: Induction of apoptosis in human HepG2 cells assessed as early apoptotic cells at 1.5 uM after 72 hrs by annexin V and propidium iodide staining-based flow cytometric analysis (reference value: 1.4 +/- 0.1%)
# Type: functional
# Details: not given
row,Structure (SMILES),Activity [%]
1,O=c1cc(-c2ccccc2)oc2cc(OCc3ccccc3)c(OCCCCN3CCCC3)c(O)c12,5.1

# Tested on: HepG2
# Assay: Induction of apoptosis in human HepG2 cells assessed as early apoptotic cells at 3 uM after 72 hrs by annexin V and propidium iodide staining-based flow cytometric analysis (reference value: 1.4 +/- 0.1%)
# Type: functional
# Details: not given
row,Structure (SMILES),Activity [%]
1,O=c1cc(-c2ccccc2)oc2cc(OCc3ccccc3)c(OCCCCN3CCCC3)c(O)c12,30

# Tested on: HepG2
# Assay: Induction of apoptosis in human HepG2 cells assessed as necrotic cells at 0.75 uM after 72 hrs by annexin V and propidium iodide staining-based flow cytometric analysis (reference value: 2.7 +/- 0.1%)
# Type: functional
# Details: not given
row,Structure (SMILES),Activity [%]
1,O=c1cc(-c2ccccc2)oc2cc(OCc3ccccc3)c(OCCCCN3CCCC3)c(O)c12,5.2

# Tested on: HepG2
# Assay: Induction of apoptosis in human HepG2 cells assessed as necrotic cells at 3 uM after 72 hrs by annexin V and propidium iodide staining-based flow cytometric analysis (reference value: 2.7 +/- 0.1%)
# Type: functional
# Details: not given
row,Structure (SMILES),Activity [%]
1,O=c1cc(-c2ccccc2)oc2cc(OCc3ccccc3)c(OCCCCN3CCCC3)c(O)c12,8.3

# Tested on: HepG2
# Assay: Antiproliferative activity against human HepG2 cells after 48 hrs by MTT assay
# Type: functional, cell-based
# Details: HepG2, 48 h
row,IC50 [µM],Structure (SMILES)
1,22.3,COc1cc2oc(-c3ccccc3)cc(=O)c2c(O)c1OCCCN1CCCCC1
2,67.2,O=c1cc(-c2ccccc2)oc2cc(O)c(OCCCCN3CCOCC3)c(O)c12
3,36.7,COc1cc2oc(-c3ccccc3)cc(=O)c2c(O)c1OCCCCN1CCN(C)CC1
4,4.3,COc1cc2oc(-c3ccccc3)cc(=O)c2c(O)c1OCCCN1CCCC1
5,> 100,O=c1cc(-c2ccccc2)oc2cc(O)c(OCCCCN3CCCC3)c(O)c12
6,21,COc1cc2oc(-c3ccccc3)cc(=O)c2c(O)c1OCCCCN1CCCCC1
7,86.2,O=c1cc(-c2ccccc2)oc2cc(O)c(OCCCN3CCOCC3)c(O)c12
8,> 100,O=c1cc(-c2ccccc2)oc2cc(OCc3ccccc3)c(OCCCCN3CCOCC3)c(O)c12

# More lines, now with the values behind:
row,Structure (SMILES),IC50 [µM]
1,COc1cc2oc(-c3ccccc3)cc(=O)c2c2c1OCCCCO2,> 100
2,COc1cc2oc(-c3ccccc3)cc(=O)c2c2c1OCCCO2,69
3,CN(C)CCCOc1c(OCc2ccccc2)cc2oc(-c3ccccc3)cc(=O)c2c1O,2.2
4,O=c1cc(-c2ccccc2)oc2cc(O)c(O)c(O)c12 [BAICALEIN],28.3
5,O=c1cc(-c2ccccc2)oc2cc(OCc3ccccc3)c(OCCCCN3CCCC3)c(O)c12,2
6,O=c1cc(-c2ccccc2)oc2cc(OCc3ccccc3)c(OCCCN3CCCCC3)c(O)c12,2.2
7,CCN(CC)CCCCOc1c(OC)cc2oc(-c3ccccc3)cc(=O)c2c1O,7.1

# Tested on: HepG2
# Assay: Induction of apoptosis in human HepG2 cells assessed as viable cells at 0.75 uM after 72 hrs by annexin V and propidium iodide staining-based flow cytometric analysis (reference value: 94.5 +/- 0.6%)
# Type: functional
# Details: HepG2, 72 h, read-out: Activity
row,Structure (SMILES),viability at 0.75 µM [%]
1,O=c1cc(-c2ccccc2)oc2cc(OCc3ccccc3)c(OCCCCN3CCCC3)c(O)c12,89.5

# Tested on: HepG2
# Assay: Induction of apoptosis in human HepG2 cells assessed as chromatin condensation at 0.75 to 3 uM after 72 hrs by DAPI staining-based fluorescent microscopic analysis
# Type: functional, cell-based
# Details: not given
row,Structure (SMILES),Activity
1,O=c1cc(-c2ccccc2)oc2cc(OCc3ccccc3)c(OCCCCN3CCCC3)c(O)c12,Active

# Tested on: HepG2
# Assay: Induction of apoptosis in human HepG2 cells assessed as viable cells at 1.5 uM after 72 hrs by annexin V and propidium iodide staining-based flow cytometric analysis (reference value: 94.5 +/- 0.6%)
# Type: functional
# Details: HepG2, 72 h, read-out: Activity
row,Structure (SMILES),viability at 1.5 µM [%]
1,O=c1cc(-c2ccccc2)oc2cc(OCc3ccccc3)c(OCCCCN3CCCC3)c(O)c12,77.5

# Tested on: HepG2
# Assay: Induction of apoptosis in human HepG2 cells assessed as viable cells at 3 uM after 72 hrs by annexin V and propidium iodide staining-based flow cytometric analysis (reference value: 94.5 +/- 0.6%)
# Type: functional
# Details: HepG2, 72 h, read-out: Activity
row,Structure (SMILES),viability at 3 µM [%]
1,O=c1cc(-c2ccccc2)oc2cc(OCc3ccccc3)c(OCCCCN3CCCC3)c(O)c12,11.1

# Tested on: HepG2
# Assay: Induction of apoptosis in human HepG2 cells assessed as late apoptotic cells at 3 uM after 72 hrs by annexin V and propidium iodide staining-based flow cytometric analysis (reference value: 1.4 %)
# Type: functional
# Details: not given
row,Structure (SMILES),Activity [%]
1,O=c1cc(-c2ccccc2)oc2cc(OCc3ccccc3)c(OCCCCN3CCCC3)c(O)c12,50.6

# Tested on: A549
# Assay: Antiproliferative activity against human A549 cells after 48 hrs by MTT assay
# Type: functional, cell-based
# Details: A549, 48 h
row,IC50 [µM],Structure (SMILES)
1,17,COc1cc2oc(-c3ccccc3)cc(=O)c2c(O)c1OCCCN1CCCCC1
2,> 100,O=c1cc(-c2ccccc2)oc2cc(O)c(OCCCCN3CCOCC3)c(O)c12
3,32,COc1cc2oc(-c3ccccc3)cc(=O)c2c(O)c1OCCCCN1CCN(C)CC1
4,6,COc1cc2oc(-c3ccccc3)cc(=O)c2c(O)c1OCCCN1CCCC1
5,51,O=c1cc(-c2ccccc2)oc2cc(O)c(OCCCCN3CCCC3)c(O)c12
6,34,COc1cc2oc(-c3ccccc3)cc(=O)c2c(O)c1OCCCCN1CCCCC1
7,> 100,O=c1cc(-c2ccccc2)oc2cc(O)c(OCCCN3CCOCC3)c(O)c12
8,> 100,O=c1cc(-c2ccccc2)oc2cc(OCc3ccccc3)c(OCCCCN3CCOCC3)c(O)c12

# More lines, now with the values behind:
row,Structure (SMILES),IC50 [µM]
1,COc1cc2oc(-c3ccccc3)cc(=O)c2c2c1OCCCCO2,> 100
2,COc1cc2oc(-c3ccccc3)cc(=O)c2c2c1OCCCO2,51.3
3,CN(C)CCCOc1c(OCc2ccccc2)cc2oc(-c3ccccc3)cc(=O)c2c1O,2.6
4,O=c1cc(-c2ccccc2)oc2cc(O)c(O)c(O)c12 [BAICALEIN],13
5,O=c1cc(-c2ccccc2)oc2cc(OCc3ccccc3)c(OCCCCN3CCCC3)c(O)c12,0.8
6,O=c1cc(-c2ccccc2)oc2cc(OCc3ccccc3)c(OCCCN3CCCCC3)c(O)c12,3.1
7,CCN(CC)CCCCOc1c(OC)cc2oc(-c3ccccc3)cc(=O)c2c1O,35

# Tested on: not listed separately
# Assay: Antiproliferative activity against human BCG823 cells after 48 hrs by MTT assay
# Type: functional, cell-based
# Details: BCG823, 48 h
row,Structure (SMILES),IC50 [µM]
1,COc1cc2oc(-c3ccccc3)cc(=O)c2c(O)c1OCCCN1CCCCC1,25.3
2,COc1cc2oc(-c3ccccc3)cc(=O)c2c2c1OCCCCO2,> 100
3,O=c1cc(-c2ccccc2)oc2cc(O)c(OCCCCN3CCOCC3)c(O)c12,58.7
4,COc1cc2oc(-c3ccccc3)cc(=O)c2c2c1OCCCO2,> 100
5,COc1cc2oc(-c3ccccc3)cc(=O)c2c(O)c1OCCCCN1CCN(C)CC1,53.5
6,CN(C)CCCOc1c(OCc2ccccc2)cc2oc(-c3ccccc3)cc(=O)c2c1O,5.5
7,COc1cc2oc(-c3ccccc3)cc(=O)c2c(O)c1OCCCN1CCCC1,6.5
8,O=c1cc(-c2ccccc2)oc2cc(O)c(OCCCCN3CCCC3)c(O)c12,86.4
9,O=c1cc(-c2ccccc2)oc2cc(O)c(O)c(O)c12 [BAICALEIN],19.1
10,COc1cc2oc(-c3ccccc3)cc(=O)c2c(O)c1OCCCCN1CCCCC1,21.9
11,O=c1cc(-c2ccccc2)oc2cc(O)c(OCCCN3CCOCC3)c(O)c12,88.3
12,O=c1cc(-c2ccccc2)oc2cc(OCc3ccccc3)c(OCCCCN3CCOCC3)c(O)c12,83.6
13,O=c1cc(-c2ccccc2)oc2cc(OCc3ccccc3)c(OCCCCN3CCCC3)c(O)c12,3.2
14,O=c1cc(-c2ccccc2)oc2cc(OCc3ccccc3)c(OCCCN3CCCCC3)c(O)c12,4.6
15,CCN(CC)CCCCOc1c(OC)cc2oc(-c3ccccc3)cc(=O)c2c1O,17.4

# Tested on: HepG2
# Assay: Induction of apoptosis in human HepG2 cells assessed as karyopyknosis at 0.75 to 3 uM after 72 hrs by DAPI staining-based fluorescent microscopic analysis
# Type: functional, cell-based
# Details: not given
row,Structure (SMILES),Activity
1,O=c1cc(-c2ccccc2)oc2cc(OCc3ccccc3)c(OCCCCN3CCCC3)c(O)c12,Active

# Tested on: HepG2
# Assay: Induction of apoptosis in human HepG2 cells assessed as early apoptotic cells at 0.75 uM after 72 hrs by annexin V and propidium iodide staining-based flow cytometric analysis (reference value: 1.4 +/- 0.1%)
# Type: functional
# Details: not given
row,Structure (SMILES),Activity [%]
1,O=c1cc(-c2ccccc2)oc2cc(OCc3ccccc3)c(OCCCCN3CCCC3)c(O)c12,3.2
